Reference: ChEMBL document CHEMBL1150002, “Synthesis and biological activities of new heterocyclic aromatic retinoids” (Bioorg Med Chem Lett, 1997)
Activity calls are given as the source filed them. The calls are words filed in the database; no cut-off is given here.

What was measured:
[1] = target: T1, Retinoic acid receptor RXR-alpha (Homo sapiens) (UniProt P19793); test: Evaluated for RXR-alpha functional transcriptional activation; NA means not active at 1 uM
T1 sequence (whole entry): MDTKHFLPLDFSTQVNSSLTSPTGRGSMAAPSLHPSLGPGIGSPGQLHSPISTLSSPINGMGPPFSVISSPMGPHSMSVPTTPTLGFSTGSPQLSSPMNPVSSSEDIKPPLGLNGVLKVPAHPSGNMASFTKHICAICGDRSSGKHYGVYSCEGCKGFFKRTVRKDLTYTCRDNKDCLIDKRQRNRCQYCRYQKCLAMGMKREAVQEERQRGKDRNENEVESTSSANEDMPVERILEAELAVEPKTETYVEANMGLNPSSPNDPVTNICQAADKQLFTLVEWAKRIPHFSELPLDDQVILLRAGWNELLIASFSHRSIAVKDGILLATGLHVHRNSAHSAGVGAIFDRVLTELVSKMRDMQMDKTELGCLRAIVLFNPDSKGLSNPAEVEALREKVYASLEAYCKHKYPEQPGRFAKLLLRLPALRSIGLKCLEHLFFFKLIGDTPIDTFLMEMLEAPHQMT

[2] = target: T2, Retinoic acid receptor gamma (Homo sapiens, UniProt P13631); test: Binding affinity towards Retinoic acid receptor gamma
T2 sequence (P13631 whole entry): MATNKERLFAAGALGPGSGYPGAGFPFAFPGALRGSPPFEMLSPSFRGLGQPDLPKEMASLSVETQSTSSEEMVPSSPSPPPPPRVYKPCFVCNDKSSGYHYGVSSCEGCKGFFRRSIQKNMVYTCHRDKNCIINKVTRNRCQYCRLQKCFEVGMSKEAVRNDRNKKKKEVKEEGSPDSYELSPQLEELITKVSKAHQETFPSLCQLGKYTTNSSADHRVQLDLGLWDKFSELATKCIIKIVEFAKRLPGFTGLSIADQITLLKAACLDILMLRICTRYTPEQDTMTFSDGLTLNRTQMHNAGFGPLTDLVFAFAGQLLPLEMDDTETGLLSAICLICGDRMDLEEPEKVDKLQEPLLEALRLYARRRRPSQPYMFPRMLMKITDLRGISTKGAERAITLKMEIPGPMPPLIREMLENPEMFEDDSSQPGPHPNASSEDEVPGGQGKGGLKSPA

[3] = target: T3, Retinoic acid receptor alpha (Homo sapiens, UniProt P10276); test: Binding affinity towards Retinoic acid receptor alpha
T3 sequence (P10276 whole entry): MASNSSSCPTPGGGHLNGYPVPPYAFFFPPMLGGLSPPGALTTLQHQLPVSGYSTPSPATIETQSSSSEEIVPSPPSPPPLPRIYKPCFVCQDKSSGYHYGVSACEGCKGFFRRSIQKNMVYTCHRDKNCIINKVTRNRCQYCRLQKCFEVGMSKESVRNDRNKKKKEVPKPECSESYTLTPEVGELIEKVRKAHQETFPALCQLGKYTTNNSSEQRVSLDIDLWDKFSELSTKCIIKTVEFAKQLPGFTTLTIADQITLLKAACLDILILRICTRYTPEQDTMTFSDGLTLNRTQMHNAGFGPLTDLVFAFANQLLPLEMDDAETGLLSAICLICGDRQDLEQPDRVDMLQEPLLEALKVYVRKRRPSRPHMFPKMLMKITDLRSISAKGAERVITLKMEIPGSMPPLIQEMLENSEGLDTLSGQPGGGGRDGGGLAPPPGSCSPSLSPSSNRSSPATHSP

[4] = target: T4, Retinoic acid receptor beta (Homo sapiens, UniProt P10826); test: Binding affinity towards Retinoic acid receptor beta
T4 sequence (P10826 whole entry): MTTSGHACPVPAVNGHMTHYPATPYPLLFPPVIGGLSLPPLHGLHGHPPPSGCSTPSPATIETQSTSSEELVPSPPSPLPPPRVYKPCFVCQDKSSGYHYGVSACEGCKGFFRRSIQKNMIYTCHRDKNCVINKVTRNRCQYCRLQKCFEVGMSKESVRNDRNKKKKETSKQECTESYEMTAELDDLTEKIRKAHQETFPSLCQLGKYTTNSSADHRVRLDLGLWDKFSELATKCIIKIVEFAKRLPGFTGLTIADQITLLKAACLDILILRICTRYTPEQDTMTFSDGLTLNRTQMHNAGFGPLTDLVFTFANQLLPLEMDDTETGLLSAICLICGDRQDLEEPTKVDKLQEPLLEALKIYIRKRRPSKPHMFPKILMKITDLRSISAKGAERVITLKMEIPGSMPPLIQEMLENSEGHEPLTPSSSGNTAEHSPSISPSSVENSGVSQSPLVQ

F9 [5] = test: Compound was tested for its ability to induce differentiation of F9 cells as estimated by plasminogen activator secretion (PA); type: functional, cell-based; conditions: Mus musculus
F9 [6] = test: Compound was tested for its ability to induce differentiation of F9 cells as estimated by plasminogen activator secretion (PA); NA = Not active; type: functional, cell-based, Mus musculus

| SMILES | Activity [1] | Ki [2] [nM] | Ki [3] [nM] | Ki [4] [nM] | AC50 (F9 [5]) [nM] | AC50 (F9 [6]) |
| --- | --- | --- | --- | --- | --- | --- |
| CC1(C)CCC(C)(C)c2cc(C3=Cc4ccc(C(=O)O)cc4OC3)ccc21 | inactive | 19 | 487 | 36 | 58 | – |
| CC(C)(C)c1cc(-c2ccc3cc(C(=O)O)ccc3c2)ccc1O | inactive | – | > 3000 | > 3000 | – | Not Active |
| COc1ccc(-c2ccc3cc(C(=O)O)ccc3c2)cc1C12CC3CC(CC(C3)C1)C2 | inactive | – | – | – | – | – |
| CC(C)(C)c1cc(C2=Cc3ccc(C(=O)O)cc3OC2)cc(C(C)(C)C)c1O | inactive | 531 | – | > 3000 | 305 | – |
| CC(C)(C)c1cc(C2=Cc3ccc(C(=O)O)cc3OC2)ccc1O | inactive | > 3000 | > 3000 | > 3000 | – | Not Active |
| O=C(O)c1ccc2c(c1)OCC(c1ccc(O)c(C34C[C@H]5C[C@@H](C3)C[C@@H](C4)C5)c1)=C2 | inactive | 148 | 821 | > 3000 | 107 | – |
| CC1(C)CCC(C)(C)c2cc(-c3ccc4cc(C(=O)O)ccc4c3)ccc21 | inactive | – | – | – | – | – |
| CC1(C)CCC(C)(C)c2cc(C3COc4cc(C(=O)O)ccc4C3)ccc21 (centres undefined) | inactive | 1040 | 5790 | 90 | 300 | – |
| COc1ccc(C2=Cc3ccc(C(=O)O)cc3OC2)cc1C12C[C@H]3C[C@@H](C1)C[C@@H](C2)C3 | inactive | 174 | 764 | 71 | – | – |
